Earlier results in US20200281890A1, “COMPOSITIONS COMPRISING CANNABIDIOL, TETRAHYDROCANNABINOL, TERPENES, AND […] USE THEREOF IN THE TREATMENT OF INSOMNIA” (CANOPY HEALTH INNOVATIONS, priority 2017, published 2020).

Tests used:
mouse = details: up to 80 mg/kg
CB1 receptor = CB1 receptor (Homo sapiens, UniProt P21554)
5-HT1A receptor = biological target: T1, 5-HT1A receptor (Homo sapiens, UniProt P08908)
T1 sequence (P08908 1-422): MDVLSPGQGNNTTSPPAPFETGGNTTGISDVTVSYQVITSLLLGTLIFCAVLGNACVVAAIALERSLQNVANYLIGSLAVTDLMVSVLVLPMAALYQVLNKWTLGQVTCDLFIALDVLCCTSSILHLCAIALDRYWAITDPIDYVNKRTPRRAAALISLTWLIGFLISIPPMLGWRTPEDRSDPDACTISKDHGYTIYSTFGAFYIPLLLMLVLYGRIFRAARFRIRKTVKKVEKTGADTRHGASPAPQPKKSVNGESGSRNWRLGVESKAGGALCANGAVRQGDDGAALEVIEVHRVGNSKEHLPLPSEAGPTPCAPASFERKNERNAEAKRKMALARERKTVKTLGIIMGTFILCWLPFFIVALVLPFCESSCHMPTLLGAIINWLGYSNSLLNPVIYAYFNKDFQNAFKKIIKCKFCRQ

CB2 receptor = CB2 receptor (Homo sapiens, UniProt P34972)
CB2 receptor, sequence (P34972 whole entry): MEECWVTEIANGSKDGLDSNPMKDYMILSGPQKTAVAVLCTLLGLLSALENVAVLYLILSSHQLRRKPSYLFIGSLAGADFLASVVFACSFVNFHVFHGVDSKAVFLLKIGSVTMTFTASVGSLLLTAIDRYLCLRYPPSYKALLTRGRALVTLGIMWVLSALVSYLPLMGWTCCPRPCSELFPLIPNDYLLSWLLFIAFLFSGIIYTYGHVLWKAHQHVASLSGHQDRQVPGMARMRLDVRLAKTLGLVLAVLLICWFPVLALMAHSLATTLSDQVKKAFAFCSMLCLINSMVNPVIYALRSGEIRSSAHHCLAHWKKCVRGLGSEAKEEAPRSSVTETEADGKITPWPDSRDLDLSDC

[1] = test system: mice, rats, gerbils and non-human primates

CB1 receptor, sequence (P21554 whole entry): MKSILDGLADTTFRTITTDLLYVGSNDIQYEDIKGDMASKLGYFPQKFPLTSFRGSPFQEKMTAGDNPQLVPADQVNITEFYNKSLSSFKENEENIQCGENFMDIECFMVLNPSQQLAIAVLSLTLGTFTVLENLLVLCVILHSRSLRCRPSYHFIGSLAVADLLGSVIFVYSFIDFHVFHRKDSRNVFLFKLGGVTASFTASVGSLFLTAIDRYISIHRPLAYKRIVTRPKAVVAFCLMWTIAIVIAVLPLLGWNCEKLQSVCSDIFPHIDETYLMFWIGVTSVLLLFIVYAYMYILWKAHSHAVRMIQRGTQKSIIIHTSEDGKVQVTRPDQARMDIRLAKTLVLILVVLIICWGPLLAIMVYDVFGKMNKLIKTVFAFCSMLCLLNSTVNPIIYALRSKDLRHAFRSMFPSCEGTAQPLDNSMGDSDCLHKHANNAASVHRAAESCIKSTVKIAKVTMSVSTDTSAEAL

Row | Structure (SMILES) | effect in mouse tetrad test (locomotor suppression, catalepsy, hypothermia and analgesia) (mouse) | a2-adrenergic receptor affinity and function (a2-adrenergic receptor) | CB1 receptor affinity and function (CB1 receptor) | 5-HT1A receptor affinity and function (5-HT1A receptor) | CB2 receptor binding and function (CB2 receptor) | THC-like activity [1] | function at the CB1 receptors (CB1 receptor) | affinity to CB2 receptors relative to CB1 (CB2 receptor; lower affinities in comparison to THC)
1 | CCCCCc1cc(O)c(C/C=C(\C)CCC=C(C)C)c(O)c1 [CBG, cannabigerol] | without effect | high affinity a2-adrenergic receptor agonist | low affinity CB1 receptor antagonist | moderate affinity 5-HT1A receptor antagonist | antagonist | does not trigger THC-like activity |  | 
2 | CCCCCc1cc(O)c2c(c1)OC(C)(C)c1ccc(C)cc1-2 [CBN, cannabinol] |  |  |  |  |  |  | partial agonist | higher affinity to CB2 receptors
